Data on 3 molecules can be found in patent US8129396B2, “2-[1H-benzimidazol-2(3H)-ylidene]-2-(pyrimidin-2-yl)acetamides and 2-[benzothiazol-2(3H)-ylidene]-2-(pyrimidin-2-yl)acetamides as kinase inhibitors” (Telik, Inc., priority 2008, dated 2012).

One experiment addresses T1, Aurora A kinase (Homo sapiens, UniProt O14965).
T1 construct: purchased Upstate Biotech
T1 sequence (O14965 1-403): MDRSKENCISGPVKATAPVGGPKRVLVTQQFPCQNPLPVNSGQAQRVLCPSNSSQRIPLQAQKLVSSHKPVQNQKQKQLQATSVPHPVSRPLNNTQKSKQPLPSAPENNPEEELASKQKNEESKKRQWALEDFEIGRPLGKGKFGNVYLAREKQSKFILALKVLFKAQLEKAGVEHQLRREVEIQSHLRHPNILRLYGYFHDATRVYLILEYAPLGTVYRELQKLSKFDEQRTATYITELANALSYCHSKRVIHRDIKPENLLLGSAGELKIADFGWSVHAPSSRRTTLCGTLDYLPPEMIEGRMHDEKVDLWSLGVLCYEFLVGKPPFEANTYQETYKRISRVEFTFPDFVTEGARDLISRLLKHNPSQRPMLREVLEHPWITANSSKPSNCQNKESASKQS
Description: Aurora A kinase assay (IMAP fluorescence polarization). It counts as biochemical. Particulars: 10 μM ATP; rounded to 1 significant figure; read-out: Aur-A IC50. The essentials: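 Compounds (eight 3-fold dilutions, 2.5% DMSO final) were preincubated 5 min at room temperature with Aurora A kinase in buffer with 1 mM DTT. Reaction with 100 nM fluorescein-PKAtide and 10 μM ATP ran 45 min at room temperature, then was stopped with IMAP binding reagent; fluorescence polarization was read after 30 min.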
(Polarisation of emitted light reports the rotation of a fluorescent probe.)

The target of another experiment is T2, Aurora B kinase (Homo sapiens, UniProt Q96GD4).
T2 construct: purchased BPS Bioscience
Nature of the experiment: Aurora B kinase assay (IMAP fluorescence polarization). Particulars: 10 μM ATP; rounded to 1 significant figure; read-out: Aur-B IC50. It counts as biochemical. The essentials: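 Reaction started with 100 nM fluorescein-labelled PKAtide and 10 μM ATP, run 45 min at room temperature, then stopped with IMAP binding reagent (1:400). After 30 min shaking at room temperature, fluorescence polarization read; run in duplicate with solvent control.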

In another experiment the target is T3, VEGFR2 kinase (Homo sapiens, UniProt P35968).
T3 construct: purchased Cell Signaling Technology
Description: VEGFR2 kinase assay. Particulars: 6 μM ATP, 1 mM MnCl2; rounded to 1 significant figure. It counts as biochemical. The procedure, abridged: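 VEGFR2 phosphorylates CSKtide with 6 μM ATP and 1 mM MnCl2 for 1 hr, otherwise following the Aurora A kinase protocol. Detection by IMAP fluorescence polarization, binding reagent diluted 1:1200 in 1:1 binding buffer A/B. Run in duplicate with solvent control.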

The test system of another experiment is p-H3 in HCT116 cells. Description: Histone phosphorylation (p-H3) assay. The experiment is classed as cell-based. Particulars: Homo sapiens, HCT-116; HCT116 cells, 4 hr incubation; read-out: p-H3 IC50. The essentials:
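HCT116 cells (2.5×10^4/well, attached overnight) treated 4 h with 8-point 3-fold compound dilutions at 0.5% DMSO. Lysates dot-blotted onto nitrocellulose and probed for p-H3 with β-actin on the same membrane, fluorescent secondary antibodies, Odyssey scan; duplicate wells.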

In experiment [1] the test system is HCT116 (human colon carcinoma) cells. Description: HCT116 cytotoxicity assay (CellTiter-Glo). It counts as cell-based. Particulars: HCT-116, 72 h, cytotoxicity, three days culture, read-out: HCT116 IC50. In general terms: Cellular ATP, detected with luciferase, serves as a proxy for viable cell number.
The test system of experiment [2] is HL60 (human promyelocytic leukemia) cells. Description: HL60 cytotoxicity assay (CellTiter-Glo). The experiment is classed as cell-based. Particulars: HL-60, 72 h, cytotoxicity, three days culture, read-out: HL60 IC50.
For experiment [3], the system named is HUVEC-2 (human umbilical vein endothelial cells). Nature of the experiment: HUVEC VEGF-dependent proliferation assay (BrdU). It counts as cell-based. Particulars: VEGF (25 ng/mL)-dependent proliferation, read-out: HUVEC IC50. The procedure, abridged:
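HUVEC-2 cells on gelatin got serially diluted compound (0.5% DMSO final), and VEGF (25 ng/mL) was added 2 hr later. BrdU (10 μM) went in after one day, with labelling for another day. VEGF-dependent proliferation was read by BrdU detection, in triplicate.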

In experiment [4] the test system is HL60 (human promyelocytic leukemia) xenograft. Nature of the experiment: HL60 xenograft assay, oral administration. The experiment is classed as in vivo, athymic nu/nu mice. Particulars: 150 mg/Kg by gavage once/day on days 1-5 and 8-10; measured 1-2 days after last treatment. The protocol: Male athymic nu/nu mice, 6-8 weeks old (about 20 g), were implanted subcutaneously in the right fore flank with about 1×10^7 cells of the HL60 (human promyelocytic leukemia) line that had been grown in antibiotic-free medium for at least two passages. About 6 days after tumor implantation, when the tumor weight was about 50-250 mg, the mice were assigned to treatment groups. […] […] Tumor growth inhibition was measured 1-2 days after the last day of treatment.

The test system of experiment [5] is HCT116 (human colon carcinoma) xenograft. Description: HCT116 xenograft assay, oral administration. The experiment is classed as in vivo, athymic nu/nu mice. Particulars: 150 mg/Kg by gavage once/day on days 1-5 and 8-12; measured 9 days after last treatment. The protocol:
Male athymic nu/nu mice, 6-8 weeks old (about 20 g), were implanted subcutaneously in the right fore flank with about 1×10^7 cells of the HCT116 (human colon carcinoma) line that had been grown in antibiotic-free medium for at least two passages. About 14-21 days after tumor transplantation, when the tumor weight was about 50-250 mg, the mice were assigned to treatment groups. […] Groups of mice were treated with compounds 39A, 40A, 60A, 75A, 95A, and 117A at 150 mg/Kg by gavage once/day on days 1-5 and 8-12 from the start of treatment, with vehicle control. Tumor growth inhibition was measured 9 days after the last day of treatment.

Another experiment deals with T4, Aurora kinase C (Homo sapiens, UniProt Q9UQB9).
T4 sequence (Q9UQB9 1-309): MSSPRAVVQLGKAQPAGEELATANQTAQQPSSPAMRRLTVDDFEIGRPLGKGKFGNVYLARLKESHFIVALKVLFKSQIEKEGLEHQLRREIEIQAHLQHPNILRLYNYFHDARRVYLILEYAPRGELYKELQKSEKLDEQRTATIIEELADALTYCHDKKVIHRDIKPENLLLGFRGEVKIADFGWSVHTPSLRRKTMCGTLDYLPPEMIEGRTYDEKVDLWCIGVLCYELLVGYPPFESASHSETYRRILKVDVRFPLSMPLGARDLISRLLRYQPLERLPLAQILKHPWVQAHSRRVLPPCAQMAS
Particulars: reported; cited from earlier work.

T2 sequence (Q96GD4 whole entry): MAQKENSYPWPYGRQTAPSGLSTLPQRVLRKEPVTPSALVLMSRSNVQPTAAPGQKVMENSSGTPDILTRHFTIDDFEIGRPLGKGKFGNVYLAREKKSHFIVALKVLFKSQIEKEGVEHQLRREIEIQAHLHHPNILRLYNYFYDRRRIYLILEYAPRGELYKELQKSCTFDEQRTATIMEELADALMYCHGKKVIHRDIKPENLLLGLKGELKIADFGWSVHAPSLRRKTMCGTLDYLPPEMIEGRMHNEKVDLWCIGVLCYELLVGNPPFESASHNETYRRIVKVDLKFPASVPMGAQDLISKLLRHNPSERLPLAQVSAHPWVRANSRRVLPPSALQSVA
T3 sequence (P35968 20-1356): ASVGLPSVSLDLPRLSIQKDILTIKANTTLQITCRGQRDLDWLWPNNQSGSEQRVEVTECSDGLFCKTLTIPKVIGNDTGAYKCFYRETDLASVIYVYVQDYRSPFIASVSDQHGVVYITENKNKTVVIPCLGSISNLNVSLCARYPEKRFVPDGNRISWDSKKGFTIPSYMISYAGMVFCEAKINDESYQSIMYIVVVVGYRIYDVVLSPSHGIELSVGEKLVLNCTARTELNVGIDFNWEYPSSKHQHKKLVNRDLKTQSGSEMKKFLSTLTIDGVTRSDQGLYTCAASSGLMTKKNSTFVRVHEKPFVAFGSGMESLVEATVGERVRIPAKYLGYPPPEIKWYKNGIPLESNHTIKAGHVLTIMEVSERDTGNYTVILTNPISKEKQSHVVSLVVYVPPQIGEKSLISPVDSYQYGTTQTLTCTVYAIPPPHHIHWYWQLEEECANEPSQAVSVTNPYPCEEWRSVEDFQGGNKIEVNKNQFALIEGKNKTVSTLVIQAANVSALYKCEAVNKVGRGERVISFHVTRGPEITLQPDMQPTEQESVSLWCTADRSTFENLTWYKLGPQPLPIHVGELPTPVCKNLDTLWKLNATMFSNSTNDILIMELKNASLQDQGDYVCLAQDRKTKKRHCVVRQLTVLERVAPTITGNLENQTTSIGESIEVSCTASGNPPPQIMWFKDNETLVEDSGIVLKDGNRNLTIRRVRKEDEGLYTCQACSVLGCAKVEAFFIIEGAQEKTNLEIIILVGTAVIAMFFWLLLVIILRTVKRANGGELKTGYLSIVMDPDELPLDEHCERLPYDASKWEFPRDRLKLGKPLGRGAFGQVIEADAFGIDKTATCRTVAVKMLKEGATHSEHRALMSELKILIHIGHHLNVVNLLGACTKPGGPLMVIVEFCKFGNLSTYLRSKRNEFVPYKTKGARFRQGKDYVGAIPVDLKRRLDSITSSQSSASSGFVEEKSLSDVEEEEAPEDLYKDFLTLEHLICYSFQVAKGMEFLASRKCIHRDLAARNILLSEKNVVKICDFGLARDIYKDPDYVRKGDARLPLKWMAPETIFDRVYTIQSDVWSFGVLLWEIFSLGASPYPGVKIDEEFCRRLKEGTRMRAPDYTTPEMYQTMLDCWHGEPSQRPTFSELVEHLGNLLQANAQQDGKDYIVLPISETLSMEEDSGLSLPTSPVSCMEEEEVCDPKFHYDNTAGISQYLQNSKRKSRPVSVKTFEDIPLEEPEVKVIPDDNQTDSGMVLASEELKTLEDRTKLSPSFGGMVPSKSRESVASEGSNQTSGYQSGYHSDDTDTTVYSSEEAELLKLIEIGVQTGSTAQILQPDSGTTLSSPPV

As to `NC(=O)C(=C1Nc2ccc(C(=O)NCCCN3CCOCC3)cc2N1)c1nccc(C(F)(F)F)n1` (single isomer, unassigned) [Compound 39A, 2-(5-{[3-(4-morpholinyl)propyl]aminocarbonyl}-1H-benzimidazol-2(3H)-ylidene)-2-(4-trifluoromethylpyrimidin-2-yl)acetamide], the IC50 (commonly the concentration that inhibits the measured activity by half) on Aurora A kinase stood at 10 nM; at Aurora B kinase, 5 nM; on VEGFR2 kinase, 7 nM; in the experiment with p-H3 in HCT116 cells, 900 nM; in [1], 300 nM; in experiment [2], 500 nM. Besides, in experiment [3], the IC50 is 60 nM. Also, the “inhibition of tumor growth compared to vehicle” value in experiment [4] was 47%; in experiment [5], 56%.
`Cc1nc(N)sc1-c1ccnc(Nc2ccc(N3CCOCC3)cc2)n1` [CYC116]: at Aurora kinase C, the half-inhibitory concentration (IC50) was less than 100 nM.
Consider `NC(=O)/C(=C1\Nc2ccc(CCn3ccnc3)cc2S1)c1nccc(C(F)(F)F)n1` [Compound 95A], for which the half-maximal inhibitory concentration (IC50) on Aurora A kinase came out at 20 nM; on Aurora B kinase, 4 nM; at VEGFR2 kinase, 20 nM; in the experiment with p-H3 in HCT116 cells, 50 nM; in experiment [1] it was 2000 nM; in [2], 2000 nM. Also, the IC50 in experiment [3] came out at 50 nM. Moreover, the figures for the “inhibition of tumor growth compared to vehicle” value in experiment [4] and in experiment [5] were 59% and 61%, respectively.
